In ChEMBL document CHEMBL5050844 (2019):

Experiments:
[1] = Induction of anti-CD3/CD28 antibodies-stimulated human T cell activation at 0.3 uM assessed fold increase in CD25 expression measured by ELISA assay; type: functional, T cell line
[2] = Induction of anti-CD3 antibodies-stimulated human exhausted CD8+ T cell activation assessed fold increase in CTLA4 expression measured by flow cytometry analysis; type: functional, T cell line; note: reference of the scale not given here
[3] = Induction of activation of human CD56+ CD3- NK cells co-cultured with human K562 cells in 1:1 ratio and assessed as increase in TNF-alpha secretion at 10 uM measured by ELISA assay; type: functional, Natural killer cell
[4] = Induction of anti-CD3/CD28 antibodies-stimulated human CD8+ T cell activation at 1.11 uM assessed fold increase in cell proliferation measured by flow cytometry analysis; type: functional, T cell line
[5] = Induction of anti-CD3 antibodies-stimulated human CD4+ T cell activation in immunocompetent mouse assessed fold increase in CD25 expression at 90 mg/kg, ip administered twice a day; type: functional; note: reference of the scale not given here
[6] = Induction of anti-CD3/CD28 antibodies-stimulated human T cell activation at 1 uM assessed fold increase in CD25 expression measured by ELISA assay; type: functional, T cell line
[7] = Induction of anti-CD3/CD28 antibodies-stimulated human anergic T cell activation at 1.11 uM assessed fold increase in IFN-gamma secretion measured by ELISA assay; type: functional, T cell line
[8] = Induction of activation of human CD56+ CD3- NK cells co-cultured with human K562 cells in 5:1 ratio and assessed as increase in IFN-gamma secretion at 10 uM measured by ELISA assay; type: functional, Natural killer cell
[9] = Induction of activation of human CD56+ CD3- NK cells co-cultured with human K562 cells in 5:1 ratio and assessed as increase in TNF-alpha secretion at 1 uM measured by ELISA assay; type: functional, Natural killer cell
[10] = Induction of anti-CD3 antibodies-stimulated human CD8+ T cell activation at 1.11 uM assessed fold increase in CD69 expression measured by flow cytometry analysis; type: functional, T cell line; note: reference of the scale not given here
[11] = Induction of activation of human CD56+ CD3- NK cells co-cultured with human K562 cells in 1:1 ratio and assessed as increase in IFN-gamma secretion at 1 uM measured by ELISA assay; type: functional, Natural killer cell
[12] = Induction of activation of human CD56+ CD3- NK cells co-cultured with human K562 cells in 5:1 ratio and assessed as increase in MIP1beta secretion at 1 uM measured by ELISA assay; type: functional, Natural killer cell
[13] = Induction of activation of human CD56+ CD3- NK cells co-cultured with human K562 cells in 5:1 ratio and assessed as increase in MIP1beta secretion at 10 uM measured by ELISA assay; type: functional, Natural killer cell
[14] = Induction of anti-CD3 antibodies-stimulated human CD8+ T cell activation in immunocompetent mouse assessed fold increase in CD25 expression at 90 mg/kg, ip administered thrice a day; type: functional; note: reference of the scale not given here
[15] = Induction of anti-CD3 antibodies-stimulated human CD8+ T cell activation at 10 uM assessed fold increase in CD69 expression measured by flow cytometry analysis; type: functional, T cell line; note: reference of the scale not given here
[16] = Induction of activation of human CD56+ CD3- NK cells co-cultured with human K562 cells in 5:1 ratio and assessed as increase in IFN-gamma secretion at 1 uM measured by ELISA assay; type: functional, Natural killer cell
[17] = Induction of activation of human CD56+ CD3- NK cells co-cultured with human K562 cells in 1:1 ratio and assessed as increase in TNF-alpha secretion at 1 uM measured by ELISA assay; type: functional, Natural killer cell
[18] = Induction of anti-CD3 antibodies-stimulated human CD8+ T cell activation at 1.11 uM assessed fold increase in cell proliferation measured by flow cytometry analysis; type: functional, T cell line; note: reference of the scale not given here
[19] = Induction of activation of human CD56+ CD3- NK cells co-cultured with human K562 cells in 1:1 ratio and assessed as increase in MIP1beta secretion at 1 uM measured by ELISA assay; type: functional, Natural killer cell
[20] = Induction of anti-CD3 antibodies-stimulated human T cell activation at 1 uM assessed fold increase in CD25 expression measured by ELISA assay; type: functional, T cell line; note: reference of the scale not given here
[21] = Induction of activation of human CD56+ CD3- NK cells co-cultured with human K562 cells in 5:1 ratio and assessed as increase in TNF-alpha secretion at 10 uM measured by ELISA assay; type: functional, Natural killer cell
[22] = Induction of activation of human CD56+ CD3- NK cells co-cultured with human K562 cells in 1:1 ratio and assessed as increase in MIP1beta secretion at 10 uM measured by ELISA assay; type: functional, Natural killer cell
[23] = Induction of anti-CD3 antibodies-stimulated human exhausted T cell activation assessed fold increase in GM-CSF secretion measured by ELISA assay; type: functional, T cell line; note: reference of the scale not given here
[24] = Induction of anti-CD3/CD28 antibodies-stimulated human CD4+ T cell activation at 10 uM assessed fold increase in cell proliferation measured by flow cytometry analysis; type: functional, T cell line
[25] = Induction of anti-CD3 antibodies-stimulated human T cell activation at 1.11 uM assessed fold increase in GM-CSF secretion measured by ELISA assay; type: functional, T cell line; note: reference of the scale not given here
[26] = Induction of anti-CD3 antibodies-stimulated human T cell activation at 1.11 uM assessed fold increase in IFN-gamma secretion measured by ELISA assay; type: functional, T cell line; note: reference of the scale not given here
[27] = Induction of anti-CD3 antibodies-stimulated human T cell activation at 10 uM assessed fold increase in GM-CSF secretion measured by ELISA assay; type: functional, T cell line; note: reference of the scale not given here

Compound	fold change (FC) [1]	fold change (FC) [2]	fold change (FC) [3]	fold change (FC) [4]	fold change (FC) [5]	fold change (FC) [6]	fold change (FC) [7]	fold change (FC) [8]	fold change (FC) [9]	fold change (FC) [10]	fold change (FC) [11]	fold change (FC) [12]	fold change (FC) [13]	fold change (FC) [14]	fold change (FC) [15]	fold change (FC) [16]	fold change (FC) [17]	fold change (FC) [18]	fold change (FC) [19]	fold change (FC) [20]	further results
C[C@@H](Sc1nncn1C)c1cccc(NC(=O)c2cccc(C(F)(F)F)n2)c1	1.01	<=1.4	1.01	2.01	1.51	1.01	<=2.5	1.01	<=1	1.201	<=1	<=1	1.01	1	1.201	<=1	1.01	3.01	1.01	<=0.6	fold change (FC) [21]: <=1; fold change (FC) [22]: 1.01; fold change (FC) [23]: <=1.4; fold change (FC) [24]: >4
C[C@H](Sc1nncn1C)c1cccc(NC(=O)c2cccc(C(F)(F)F)n2)c1	1.31	<=1.4	1.01	<=2	1	1.31	2.51	2.01	1.01	<=1.2	1.01	<=1	1.01	1.51	<=1.2	1.01	1.01	<=2	1.01	0.601	fold change (FC) [25]: 1.51; fold change (FC) [26]: <=2; fold change (FC) [27]: 2.01; fold change (FC) [21]: 2.01; fold change (FC) [22]: 1.01; fold change (FC) [23]: 1.41; fold change (FC) [24]: <=2
